Reference: US20040235920A1, “Novel use of substituted aminomethyl chromans for the treatment of movement disorders and of adverse effects induced by drugs administered to treat extrapyramidal movement disorders” (priority 2001, published 2004)

What was measured:
Assay type in all cases: in vivo
[1] = test system: Parkinsonian cynomolgus monkey; assay: MPTP Parkinsonian cynomolgus monkey chronically treated with l-dopa (Abnormal Involuntary Movement Scale, rating for psychotic states); settings: MPTP monkeys, long-term l-dopa
Protocol: Treatment of adverse effects of conventional anti-Parkinsonian drugs as defined above are determined in a modification of the animal model of the Parkinsonian cynomolgus monkey according to P. J. Blanchet et al., Exp. Neurology 1998; 153: 214-222. Monkeys render parkinsonian by repeated injections of 1-methyl-4-phenyl-1,2,3,6-tetrahydropyridine (MPTP). The Parkinsonian monkeys are chronically treated with the standard l-dopa therapy according to P. J. Blanchet et al., Mov. Disord., 1998; 13: 798-802. Longterm treatment with l-dopa induces extrapyramidal motor side effects and psychotic states which are both qualitatively and quantitatively, assessed by the Abnormal Involuntary Movement Scale (P. J. Blanchet et al., Mov. Disord. 1998; 13: 798-802) for different body parts (face, neck, trunk, each limb) and by rating for psychotic states by observing the monkey's attention, reactivity and mobility. (−)-(R)-2-{4-[[3,4-dihydro-2H-benzopyran-2-yl)-methyl]amino]butyl}-1,2-benzoisothiazol-3-(2H)-on-1,1-dioxide reduced overall choreiform dyskinesias and dystonic dyskinesias as well as psychotic states.

[2] = test system: rat with nigrostriatal degeneration; assay: Striatonigral degeneration in the rat (6-hydroxydopamine plus quinolinic acid), turning behavior; settings: automated recorder
From the text: Another more recent animal model is the striatonigral degeneration approach in the rat according to G. K. Wenning et al., J. Neural Transm. Suppl., 1999; 55: 103-113. Rats receive an unilateral injection of 6-hydroxydopamine into the left medial forebrain bundle followed by an injection of quinolinic acid into the ipsilateral striatum inducing nigrostriatal degeneration. The degeneration results in turning behavior to a challenge with dopaminomimetics such as apomorphine or amphetamine. Turning behavior is measured by an automated recorder.

[3] = test system: oxotremorine-induced tremor; assay: Oxotremorine-induced tremor (rating scale)
Protocol: A typical animal model for drug-induced tremors is the oxotremorine-induced tremor (e.g. H. Hallberg and O. Almgren, Acta Physiol. Scand., 1987; 129: 407-13; J. G. Clement and W. R. Dyck, J. Pharmacol. Meth., 1989; 22: 25-36). Oxotremorine induces tremor which is measured by a rating scale. (−)-(R)-2-{4-[[3,4-dihydro-2H-benzopyran-2-yl)-methyl]amino]butyl}-1,2-benzoisothiazol-3-(2H)-on-1,1-dioxide or one of its pharmaceutically acceptable salt inhibit oxotremorine-induced tremors.

[4] = Abnormal Involuntary Movement Scale

`O=C1c2ccccc2S(=O)(=O)N1CCCCNC[C@H]1CCc2ccccc2O1` [(−)-(R)-2-{4-[[3,4-dihydro-2H-benzopyran-2-yl)-methyl]amino]butyl}-1,2-benzoisothiazol-3-(2H)-on-1,1-dioxide] was tested, and the dystonic dyskinesias [1, 4] was “reduced”, the overall choreiform dyskinesias [1, 4] was “reduced” and the psychotic states ([1]; rating of attention, reactivity and mobility) was “reduced”. For the same molecule, the “turning behavior induced by amphetamine” value [2] was “dose-dependently antagonized”, the “turning behavior induced by apomorphine” value [2] was “dose-dependently antagonized” and the oxotremorine-induced tremors [3] was “inhibit”.
